For data set [1], the system named is K562 human chronic myeloid leukaemia cells. In words: K562 cell line MTT assay, 96 hour exposure. The data set is classed as cell-based. Conditions: 96 hour incubation. As to the method:
In a modification of the above method, 5×10^4 K562 cells (as above) were maintained in RPMI 1640 medium (Sigma) supplemented with 10% foetal calf serum (Sigma) and 20 mM L-glutamine (Sigma) and 190 μL of this solution incubated with specific doses of the drug (10 μL) for 96 hours at 37° C. in 5% CO2. 250 μg/ml (final) MTT was added to each well and the plates incubated for a further 4 hours. Absorbance was read at 450 nm using an Envision plate reader (Applied Biosystems). Data was then analysed by Graphpad PRISM, and an IC50 obtained (defined as the compound concentration needed to reduce the cell population by half).

The subject of data set [2] is LOXIMVI human melanoma cells. The data set can be described thus: LOXIMVI cell line cytotoxicity (resazurin). Type of data set: cell-based. Conditions: 96 hours, read-out: ZC-423 IC50. As to the method: (§1) LOXIMVI and OVCAR-5 Cell Lines
(§2) A cell solution containing 5×10^4 cells/ml of either LOXIMVI human melanoma cells or OVCAR-5 human ovarian tumour cells was made up in phenol red free RPMI 1640 (Sigma) supplemented with 10% foetal calf serum (Sigma) and 20 mM L-glutamine (Sigma). 190 μl cell solution was added to each well of a fluorescence compatible polystyrene 96 well cell culture plate (Greiner BioOne), from columns 2 to 11. 190 μl culture media was added to columns 1 and 12. Plates were incubated overnight at 37° C. in 5% CO2. Compounds were dissolved in 100% Biotech grade DMSO (Sigma) and subsequently diluted to stock concentrations in 2% DMSO. 100 μl of the stock concentrations were serially diluted 1 in 3 in 2% DMSO in intermediate polystyrene 96 well cell culture plates (Nunc). 2% DMSO was placed in the outer columns for use as blanks, and in the 2nd or 11th column (depending on whether the top or bottom of an assay plate was to be used) for use as a control. The entire row of the intermediate plate was then transferred in triplicate, 10 μl per well, to either rows B to D or E to G of the cell plate. […] Fluorescence was read at 530-570 nm excitation, 580-620 nm emission using an Envision plate reader (Applied Biosystems). Data was then analysed by Graphpad PRISM, and an IC50 obtained (defined as the compound concentration needed to reduce the cell population by half).

For data set [3], the system named is OVCAR-5 human ovarian tumour cells. The data set can be described thus: OVCAR-5 cell line cytotoxicity (resazurin). The data set is classed as cell-based. Particulars: 96 hours, read-out: ZC-423 IC50. As to the method: as §1, §2
For data set [4], the system named is LOX IMVI (human melanomas). The data set can be described thus: Anti tumour activity, LOX IMVI xenograft in nude mice. The data set is classed as in vivo. As to the method: LOX IMVI (human melanomas) were grown subcutaneously in nude mice (B&K Universal, Hull, UK). Tumours were transplanted as single tumour fragments in the flank by trocar. Groups of 8 tumour-bearing mice were treated with ZC423 at the previously established single intravenous (iv) maximum tolerated dose (MTD) of 3 mgkg^−1 using 5% DMA/saline as the vehicle. Control mice (n=8) were treated with vehicle alone.
Treatment commenced when tumours could be reliably measured by calipers (mean dimensions 4×4 mm) and therapeutic effects were assessed by daily caliper measurements of the tumour and mouse weights. Tumour volumes were determined by the formula a^2×b/2 where a is the smaller and b is the larger diameter of the tumour. The results are shown in FIG. 1 as a graphs of relative tumour volume against time (▪ ZC423; ♦ Control—solvent alone).

Data set [5] is described as follows: Single intravenous maximum tolerated dose. The data set is classed as in vivo, mice. Particulars: previously established.
The next data set can be described thus: Solubility in water. Particulars: saturated solution in water. The data set is classed as physicochemical. As to the method: Solubility was determined by dissolving the test compound in the minimum amount of water to produce a saturated solution.
For data set [6], the system named is Closed-circular puc18 DNA linearized with HindIII. In words: DNA cross-linking (agarose gel). The data set is classed as biochemical. Particulars: amount required to cross-link 50% of the DNA (XL50), 37° C., pH 7.2. The procedure:
Closed-circular puc18 DNA was linearized with HindIII, then dephosphorylated, and finally 5′ end labeled with [y32P]-ATP using polynucleotide kinase. Reactions containing 10 ng of DNA and drug were carried out in aqueous 1×TEOA (25 mM triethanolamine, 1 mM EDTA, pH 7.2) buffer at a final volume of 50 μL at 37° C. Reactions were terminated by addition of an equal volume of stop solution (0.6 M NaOAc, 20 mM EDTA, 100 μg/mL tRNA) followed by precipitation with ethanol. Following centrifugation of the samples, the supernatants were discarded and the pellets were dried by lyophilization. […]
Electrophoresis was performed on a 0.8% submerged horizontal agarose gel, 20 cm in length for 16 hours at 38-40 V in 1×TAE running buffer (2.42 g Tris Base, 0.372 g EDTA, 0.571 ml glacial acetic acid). […] The film bands were quantitated using a BioRad GS-670 imaging laser densitometer. The percentage of cross-linking was calculated by measuring the total DNA in each lane (the sum of the densities for the double-stranded and single-stranded bands) relative to the amount of density of double-stranded band alone. A dose response curve was derived by plotting drug concentration against the determined percentage level of cross-linked DNA, from which was derived the amount required to cross-link 50% of the DNA (XL50).

The next data set relates to K562 cells. In words: K562 cell line Alamar Blue assay. The data set is classed as cell-based, human. Conditions: 96 hours. As to the method:
K562 Cell Line (Alamar Blue Assay)
The compounds to be tested were dissolved in 100% Biotech grade DMSO (Sigma) and subsequently diluted to stock concentrations of either 2 μM or 200 nM in 2% DMSO. 100 μl of the stock concentrations were serially diluted 1 in 3 in 2% DMSO in intermediate polystyrene 96 well cell culture plates (Nunc). 2% DMSO was placed in the outer columns for use as blanks, and in the 2nd or 11th column (depending on whether the top or bottom of an assay plate was to be used) for use as a control. The entire row of the intermediate plate was then transferred in triplicate to either rows B to D or E to G of a fluorescence compatible polystyrene 96 well cell culture plate (Greiner BioOne); 10 μl to each well. A cell solution containing 5×10^4 cells/ml was made up in phenol red free RPMI 1640 (Sigma) supplemented with 10% foetal calf serum (Sigma) and 20 mM L-glutamine (Sigma). 190 μl cell solution was added to each well of the assay plate, from columns 2 to 11. 190 μl culture media was added to columns 1 and 12. Plates were incubated for 96 hours at 37° C. in 5% CO2. 1 μM (final) rezasurin (converted to fluorescent resofurin by viable cells) was added to each well and the plates incubated for a further 4 hours. Fluorescence was read at 530-570 nm excitation, 580-620 nm emission using an Envision plate reader (Applied Biosystems). Data was then analysed by Graphpad PRISM, and an IC50 obtained (defined as the compound concentration needed to reduce the cell population by half).

Data set [7] concerns K562 human chronic myeloid leukaemia cells. The data set can be described thus: K562 cell line MTT assay, 1 hour exposure. The data set is classed as cell-based. Conditions: 1 hour incubation. The procedure:
K562 Cell Line (MTT Assay)
K562 human chronic myeloid leukaemia cells were maintained in RPM1 1640 medium supplemented with 10% fetal calf serum and 2 mM glutamine at 37° C. in a humidified atmosphere containing 5% CO2 and were incubated with a specified dose of drug for 1 hour at 37° C. in the dark. The incubation was terminated by centrifugation (5 min, 300 g) and the cells were washed once with drug-free medium. Following the appropriate drug treatment, the cells were transferred to 96-well microtiter plates (10^4 cells per well, 8 wells per sample). Plates were then kept in the dark at 37° C. in a humidified atmosphere containing 5% CO2. The assay is based on the ability of viable cells to reduce a yellow soluble tetrazolium salt, 3-(4,5-dimethylthiazol-2-yl)-2,5-diphenyl-2H-tetrazolium bromide (MTT, Aldrich-Sigma), to an insoluble purple formazan precipitate. Following incubation of the plates for 4 days (to allow control cells to increase in number by approximately 10 fold), 20 μL of MTT solution (5 mg/mL in phosphate-buffered saline) was added to each well and the plates further incubated for 5 h. The plates were then centrifuged for 5 min at 300 g and the bulk of the medium pipetted from the cell pellet leaving 10-20 μL per well. […] The optical density was then read at a wavelength of 550 nm on a Titertek Multiscan ELISA plate reader, and a dose-response curve was constructed. […]

Results on 9 compounds are retold here after patent publication US8633185B2 (priority 2005, dated 2014).

pIC50: −log10 of the molar value.

Take “1,1′[[(Propane-1,5-diyl)dioxy]bis[(11aS)-11-sulpho-7-methoxy-2-(4-methoxyphenyl)-1,10,11,11a-tetrahydro-5H-pyrrolo[2,1-c][1,4]benzodiazepin-5-one]] sodium salt [ZC-423]”: the figures for the pIC50 in data set [1], in [2] and in [3] were 8.82, 8.32 and 8.28, respectively. In addition, the “activity (relative tumour volume vs control), Mann-Whitney analysis” value in [4] (single iv 3 mgkg^−1, FIG. 1) is on record as “statistically significant”. Besides, the tumour free animals result in [4] (single iv 3 mgkg^−1, at 68 days, FIG. 2) is reported as “all animals were tumour free”. Moreover, the “single intravenous (iv) maximum tolerated dose (MTD)” value in data set [5] was found to be 3 mgkg^−1. In the data set “Solubility in water”, the “Amount of compound (g) in 1 L water” value is 11 g in 1 L water.
`COc1cc2c(cc1OCCCOc1cc3c(cc1OC)C(=O)N1C=C(c4ccc5ccccc5c4)C[C@H]1C=N3)N=C[C@@H]1CC(c3ccc4ccccc4c3)=CN1C2=O` [Compound 18] gave a pIC50 in [6] of 6.70.
In [6], `COc1cc2c(cc1OCCCOc1cc3c(cc1OC)C(=O)N1C=C(c4cccs4)C[C@H]1C=N3)N=C[C@@H]1CC(c3cccs3)=CN1C2=O` [Compound 21] had a pIC50 of 6.30.
On to `COc1cccc(C2=CN3C(=O)c4cc(OC)c(OCCCOc5cc6c(cc5OC)C(=O)N5C=C(c7cccc(OC)c7)C[C@H]5C=N6)cc4N=C[C@@H]3C2)c1` [Compound 26, 1,1′-[[(Propane-1,3-diyl)dioxy]bis[(11aS)-7-methoxy-2-(3-methoxybenzene)-1,11a-dihydro-5H-pyrrolo[2,1-c][1,4]benzodiazepine-5-one]]], for which, in the data set on K562 cells (Homo sapiens), the pIC50 is greater than 9.00.
In the data set with K562 cells, `COc1cccc(C2=CN3C(=O)c4cc(OC)c(OCCCOc5cc6c(cc5OC)C(=O)N5C=C(c7cccc(OC)c7)C[C@H]5C(S(=O)(=O)[O-])N6)cc4NC(S(=O)(=O)[O-])[C@@H]3C2)c1.[Na+].[Na+]` (stereo partly drawn) [Compound 27, 1,1′-[[(Propane-1,3-diyl)dioxy]bis[(11aS)-11-sulpho-7-methoxy-2-(3-methoxybenzene)-1, 10,11,11a-tetrahydro-5H-pyrrolo[2,1-c][1,4]benzodiazepin-5-one]] sodium salt] had a negative logarithm of the IC50 (pIC50) greater than 9.00. Besides, the “Amount of compound (g) in 1 L water” value in “Solubility in water” turned out to be 9 g in 1 L water.
With `COc1cc2c(cc1OCCCOc1cc3c(cc1OC)C(=O)N1C=C(c4ccc5c(c4)OCO5)C[C@H]1C=N3)N=C[C@@H]1CC(c3ccc4c(c3)OCO4)=CN1C2=O` [Compound 29], the pIC50 with K562 cells (Homo sapiens) was greater than 9.00.
On the same count and under the same terms, the figure for `COc1cc2c(cc1OCCCOc1cc3c(cc1OC)C(=O)N1C=C(c4ccc(F)cc4)C[C@H]1C=N3)N=C[C@@H]1CC(c3ccc(F)cc3)=CN1C2=O` [Compound 32, 1,1′-[[(Propane-1,3-diyl)dioxy]bis[(11aS)-7-methoxy-2-(4-fluorobenzene)-1,11a-dihydro-5H-pyrrolo[2,1-c][1,4]benzodiazepine-5-one]]] is greater than 9.00.
Take `COc1cc2c(cc1OCCCOc1cc3c(cc1OC)C(=O)N1C=C(c4ccc(F)cc4)C[C@H]1C(S(=O)(=O)[O-])N3)NC(S(=O)(=O)[O-])[C@@H]1CC(c3ccc(F)cc3)=CN1C2=O.[Na+].[Na+]` (stereo partly drawn) [Compound 33, 1,1′-[[(Propane-1,3-diyl)dioxy]bis[(11aS)-11-sulpho-7-methoxy-2-(4-fluorobenzene)-1, 10,11,11a-tetrahydro-5H-pyrrolo[2,1-c][1,4]benzodiazepin-5-one]] sodium salt]: the pIC50 with K562 cells is greater than 9.00. Besides, in “Solubility in water”, the “Amount of compound (g) in 1 L water” value came to 3 g in 1 L water.
In turn, `COc1ccc(C2=CN3C(=O)c4cc(OC)c(OCCCOc5cc6c(cc5OC)C(=O)N5C=C(c7ccc(OC)cc7)C[C@H]5C=N6)cc4N=C[C@@H]3C2)cc1` [ZC-207, 1,1′-[[(Propane-1,3-diyl)dioxy]bis[(11aS)-7-methoxy-2-(p-methoxybenzene)-1,11a-dihydro-5H-pyrrolo[2,1-c][1,4]benzodiazepine-5-one]]] gave a pIC50 in [7] of 8.28. Moreover, the “Amount of compound (g) in 1 L water” value in the data set “Solubility in water” was “Insoluble”.
